From publication PMC3929664, “A Panel of Diverse Assays to Interrogate the Interaction between Glucokinase and Glucokinase Regulatory Protein, Two Vital Proteins in Human Disease” (PLoS ONE, 2014) come the findings set out here.

In general, EC50 refers to the concentration that produces a half-maximal response. The IC80 is the concentration at which the effect reaches the 80% level. Broadly, the IC50 is the concentration at which inhibition is half-maximal.

The target in this assay is T1, GCK enzymatic reaction inhibited by GKRP (recombinant human GCK and GKRP) (Homo sapiens, UniProt P35557+Q14397).
T1 construct: made in house
T1 sequence (P35557 1-465): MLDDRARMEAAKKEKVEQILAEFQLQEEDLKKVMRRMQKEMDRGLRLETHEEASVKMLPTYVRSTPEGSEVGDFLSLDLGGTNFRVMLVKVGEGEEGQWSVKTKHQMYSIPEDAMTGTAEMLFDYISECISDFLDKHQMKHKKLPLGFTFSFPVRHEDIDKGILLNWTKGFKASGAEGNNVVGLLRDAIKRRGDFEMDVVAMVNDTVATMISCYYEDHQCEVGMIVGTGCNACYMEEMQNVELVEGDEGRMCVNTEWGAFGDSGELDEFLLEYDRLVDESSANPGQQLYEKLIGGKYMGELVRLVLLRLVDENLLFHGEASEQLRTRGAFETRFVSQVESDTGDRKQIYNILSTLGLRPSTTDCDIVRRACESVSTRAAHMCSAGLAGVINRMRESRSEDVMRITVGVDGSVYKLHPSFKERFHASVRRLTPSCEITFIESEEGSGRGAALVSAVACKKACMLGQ
T1 sequence (Q14397 1-625): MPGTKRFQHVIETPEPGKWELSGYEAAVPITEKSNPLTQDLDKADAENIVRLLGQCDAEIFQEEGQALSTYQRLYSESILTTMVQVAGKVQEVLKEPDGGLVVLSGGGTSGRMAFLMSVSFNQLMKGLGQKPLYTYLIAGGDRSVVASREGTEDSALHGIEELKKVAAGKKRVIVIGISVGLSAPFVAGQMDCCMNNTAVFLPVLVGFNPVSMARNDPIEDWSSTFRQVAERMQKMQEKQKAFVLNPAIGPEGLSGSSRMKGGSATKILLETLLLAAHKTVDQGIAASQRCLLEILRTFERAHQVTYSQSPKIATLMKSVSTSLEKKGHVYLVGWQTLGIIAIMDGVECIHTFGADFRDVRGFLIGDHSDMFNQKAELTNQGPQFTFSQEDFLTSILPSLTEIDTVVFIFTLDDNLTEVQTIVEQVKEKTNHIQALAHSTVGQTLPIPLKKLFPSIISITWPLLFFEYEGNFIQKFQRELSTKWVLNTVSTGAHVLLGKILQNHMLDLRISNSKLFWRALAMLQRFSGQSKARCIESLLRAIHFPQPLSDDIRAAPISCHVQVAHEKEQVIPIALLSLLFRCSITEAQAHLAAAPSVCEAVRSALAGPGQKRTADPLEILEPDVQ
Put plainly: Diaphorase-coupled kinetic assay (G6PDH/diaphorase dual-coupled). The format is biochemical. To be noted: 10 nM GCK, 10 nM GKRP; for LOPAC1280 screen outcome: 1.5 µM S6P. As for the experimental part: The glucose 6-phosphate dehydrogenase (G6PDH)-coupled kinetic assay described previously was adapted for high-throughput screening by dispensing 2 µl diaphorase-coupled substrate assay buffer (pH 7.1) to give final reaction conditions of 25 mM HEPES, 25 mM KCl, 2 mM MgCl2, 1.4 mM 2-mercaptoethanol, 0.025% BSA, 0.01% Tween-20, 0.15 mM NADP^+, 5 mM glucose, 0.4 mM ATP, 4 U/ml G6PDH, and 0.1 mM resazurin (all Sigma-Aldrich, except ATP which was from Promega) into black 1536-well medium binding plates (Greiner Bio-One) using a BioRAPTR. The reaction was then initiated by addition of 2 µl of diaphorase-coupled enzyme assay buffer containing indicated concentrations of GST-GCK, FLAG-GKRP, and diaphorase (Sigma-Aldrich; final concentration 0.1 mg/ml). Reaction progress was followed by quantitation of the fluorescent product resorufin generated from resazurin with excitation at 525 nm and emission at 590 nm using a ViewLux Microplate Imager. Plates were read every minute for 30 minutes. […] For the LOPAC^1280 library screen, column 1 was all components with DMSO (maximum signal) and column 3 was no GCK with DMSO (minimum signal). These two control columns were used for data normalization. The final HTS protocol is in Table S2, and the data have been deposited in PubChem (AID 743205).
S6P, F1P, and glucose were dissolved in water; GKAs were dissolved in DMSO.
The G6PDH-coupled kinetic assay system described in [24] was utilized as a basis for developing a high-throughput screening assay to detect G6P generation. Because NADPH (excitation 340 nm, emission 450 nm) has spectral overlap with many fluorescent small molecule compounds, NADPH generation by G6PDH was coupled to NADPH-dependent reduction of resazurin to the fluorescent resorufin (excitation 525 nm, emission 590 nm) catalyzed by diaphorase ( Figure 1B ). Initial assay validation was carried out over a range (0–20 nM) of GCK and GKRP concentrations ( Figure 4A ). Additionally, seven different control mixes of NADP^+ and NADPH were tested in duplicate to generate a standard curve. The total NADP^+/NADPH concentration was 0.15 mM for all controls, with 0, 5, 10, 30, 50, 70, or 100% NADPH. This allowed estimation of the amount of NADP^+ that had been converted by the GCK reaction throughout the time-course ( Figure 4A , dashed lines). The assay is sensitive to very low levels of conversion.
The reaction rate for both 10 nM GCK alone and for 10 nM GCK with 10 nM GKRP was linear for the entire 30-minute time-course. The combination of linearity and the relatively low percent conversion of NADP^+ led us to select t = 10 minutes as providing an appropriate signal window for all future analyses. […] The IC80 value for S6P was calculated as 1.5 µM. Accordingly, this S6P concentration was utilized for all remaining diaphorase-coupled experiments.

Structures can show the parent of a compound that is named as a salt.

Regarding `O=C(O)C1=CC(=C(c2ccc(O)c(C(=O)O)c2)c2ccc(O)c(C(=O)O)c2)C=CC1=O` [ATA, aurintricarboxylic acid], the LOPAC1280 screen outcome is reported as “inhibitors of the GCK-GKRP interaction”. Turning to `O=C(COP(=O)(O)O)[C@@H](O)[C@H](O)[C@H](O)CO` [F1P, fructose 1-phosphate], the EC50 (t = 10 minutes, mean ± SD) was determined as 4000 ± 500 nM. For `O=P(O)(O)OC[C@@H](O)[C@@H](O)[C@H](O)[C@@H](O)CO` [S6P, sorbitol 6-phosphate], the IC80 was determined as 1500 nM. The IC50 (t = 10 minutes, mean ± SD) was found to be 400 ± 40 nM. In the case of `Cc1ccc(C(=O)Nc2ccc(S(=O)(=O)O)c3cc(S(=O)(=O)O)cc(S(=O)(=O)O)c23)cc1NC(=O)c1cccc(NC(=O)Nc2cccc(C(=O)Nc3cc(C(=O)Nc4ccc(S(=O)(=O)O)c5cc(S(=O)(=O)O)cc(S(=O)(=O)O)c45)ccc3C)c2)c1` [suramin sodium salt], the LOPAC1280 screen outcome is listed as “inhibitors of the GCK-GKRP interaction”.
